For the series, the system named is HCT-8 cells. As to the kind of experiment: Fluorescent HCT-8 host cell growth assay. The conditions noted are these: in words. Type of series: cell-based, human. How it is done:
HCT-8 cells were transfected with plasmid pmaxGFP (Amaxa) using Lipofectamine (Invitrogen). Fluorescent lines were then selected and cloned using cell sorting. Confluent monolayers of pmaxGFP expressing cells were harvested from T75 flasks and passed through a 40 µm cell strainer. Cells were seeded at 4000 cells per well into black, optical quality, thin bottom, 96-well plates. All test compounds were diluted in DMSO as described. The fluorescence was read daily with a SpectraMax M22/M2e (Molecular Devices) plate reader (Ex 485, Em 530) for 6–7 days. Percent inhibition was calculated on a day within the exponential phase of growth.

Take `CCCC(=O)[O-].[Na+]` [sodium butyrate, reference compound]: the “effect on host cell (HCT-8) growth” value is “did inhibit HCT-8 growth in a dose-dependent manner”.

Values taken from article PMC2919388, “A Screening Pipeline for Antiparasitic Agents Targeting Cryptosporidium Inosine Monophosphate Dehydrogenase” (PLoS Neglected Tropical Diseases, 2010).
